# Assay results: patent US9259002B2, “Herbicidal composition and method of use thereof” (Syngenta Crop Protection LLC, priority 2006, dated 2016)
# Columns and labels:
# Assay type in all cases: in vivo
# [1] = tested on: white clover (Trifolium repens); assay: Glasshouse trial, post-emergence control of white clover
# Method: A glasshouse trial was carried out. White clover seeds were sown into standard glasshouse potting mix (1:1 v/v Promix:Vero sand soil) contained in 10 cm square plastic pots. Treatments were replicated three times. […] When used, dithiopyr was applied at a rate of 70 g ai/ha or 140 g ai/ha. The adjuvant system was X-77 at 0.1% v/v in deionised water. 200 liters of herbicide/adjuvant system was used per hectare. General weed control was evaluated at 10 and 16 days after treatment (DAT). It is noted that all herbicides were applied at reduced field rates because herbicide effects are magnified in a glasshouse environment. Rates were chosen to give a 50 to 70% level of control with herbicides applied alone as this allows for detection of any synergistic effect when tank mixtures are used. […] The results were evaluated using the Colby formula. The expected result for (A+B) is (A+B)−(A×B/100) where A and B are the ‘observed’ results for A and B on their own. […] A glasshouse trial was carried out as described in Example 1, but using triclopyr (in the form of Turflon®) instead of dithiopyr. A glasshouse trial was carried out as described in Example 2, but using fluoroxypyr (in the form of Spotlight®) instead of triclopyr.
# [2] = tested on: Medicago lupulina (black medic); assay: Glasshouse trial, post-emergence control of black medic; conditions: for Expected control (Colby), Plus Mesotrione at 100 g ai/ha: Colby formula; for Actual control, Plus Mesotrione at 100 g ai/ha: post-emergence
# Method: A glasshouse trial was carried out. White clover seeds were sown into standard glasshouse potting mix (1:1 v/v Promix:Vero sand soil) contained in 10 cm square plastic pots. Treatments were replicated three times. Mesotrione (in the form Callisto® 480SE) was applied post-emergence to white clover (Trifolium repens) at either 50 g ai/ha or 100 g ai/ha with or without dithiopyr (in the form Dimension®). When used, dithiopyr was applied at a rate of 70 g ai/ha or 140 g ai/ha. The adjuvant system was X-77 at 0.1% v/v in deionised water. 200 liters of herbicide/adjuvant system was used per hectare. General weed control was evaluated at 10 and 16 days after treatment (DAT). It is noted that all herbicides were applied at reduced field rates because herbicide effects are magnified in a glasshouse environment. Rates were chosen to give a 50 to 70% level of control with herbicides applied alone as this allows for detection of any synergistic effect when tank mixtures are used. […] The results were evaluated using the Colby formula. The expected result for (A+B) is (A+B)−(A×B/100) where A and B are the ‘observed’ results for A and B on their own. […] A glasshouse trial was carried out as described in Example 1, but using triclopyr (in the form of Turflon®) instead of dithiopyr. A glasshouse trial was carried out as described in Example 2, but using Medicago lupulina (black medic) of white clover. A glasshouse trial was carried out as described in Example 4, but using fluoroxypyr instead of triclopyr.
# [3] = tested on: Eleusine indica (goosegrass); assay: Glasshouse trial, post-emergence control of goosegrass; conditions: for Expected control (Colby), Plus Mesotrione at 200 g ai/ha: Colby formula; for Actual control, Plus Mesotrione at 200 g ai/ha: post-emergence
# [4] = fluroxypyr 50 g ai/ha + mesotrione 100 g ai/ha
# [5] = triclopyr 140 g ai/ha + mesotrione 200 g ai/ha
# [6] = triclopyr 280 g ai/ha + mesotrione 200 g ai/ha
# [7] = triclopyr 140 g ai/ha + mesotrione 100 g ai/ha
smiles,measurement,setting,value
"CSC(=O)c1c(C(F)F)nc(C(F)(F)F)c(C(=O)SC)c1CC(C)C [Dithiopyr, S,S′-dimethyl 2-difluoromethyl-4-isobutyl-6-trifluoromethylpyridine-=3,5-dicarbothioate]","Actual control, Plus Mesotrione at 50 g ai/ha","[1]; dithiopyr 70 g ai/ha + mesotrione 50 g ai/ha tank mix, post-emergence, 10 DAT",46.7
same,"Expected control (Colby), Plus Mesotrione at 50 g ai/ha","[1]; dithiopyr 70 g ai/ha + mesotrione 50 g ai/ha, 10 DAT, Colby formula",37.4
same,"Actual control, Plus Mesotrione at 100 g ai/ha","[1]; dithiopyr 70 g ai/ha + mesotrione 100 g ai/ha tank mix, post-emergence, 10 DAT",55.0
same,"Expected control (Colby), Plus Mesotrione at 100 g ai/ha","[1]; dithiopyr 70 g ai/ha + mesotrione 100 g ai/ha, 10 DAT, Colby formula",52.6
same,"Actual control, Plus Mesotrione at 50 g ai/ha","[1]; dithiopyr 140 g ai/ha + mesotrione 50 g ai/ha tank mix, post-emergence, 10 DAT",43.3
same,"Expected control (Colby), Plus Mesotrione at 50 g ai/ha","[1]; dithiopyr 140 g ai/ha + mesotrione 50 g ai/ha, 10 DAT, Colby formula",44.2
same,"Actual control, Plus Mesotrione at 100 g ai/ha","[1]; dithiopyr 140 g ai/ha + mesotrione 100 g ai/ha tank mix, post-emergence, 10 DAT",46.7
same,"Expected control (Colby), Plus Mesotrione at 100 g ai/ha","[1]; dithiopyr 140 g ai/ha + mesotrione 100 g ai/ha, 10 DAT, Colby formula",57.8
same,control of white clover on its own,"[1]; dithiopyr alone, higher rate (140 g ai/ha), post-emergence",18%
same,control of white clover on its own,"[1]; dithiopyr alone, lower rate (70 g ai/ha), post-emergence",8%
"Nc1c(Cl)c(F)nc(OCC(=O)O)c1Cl [Fluroxypyr, [(4-amino-3,5-dichloro-6-fluoro-2-pyridinyl)oxy]acetic acid]","Expected control (Colby), Plus Mesotrione at 100 g ai/ha","[1]; fluroxypyr 50 g ai/ha + mesotrione 100 g ai/ha, Colby formula",84
same,"Actual control, Plus Mesotrione at 100 g ai/ha","[1]; fluroxypyr 50 g ai/ha + mesotrione 100 g ai/ha, post-emergence",91
same,"Expected control (Colby), Plus Mesotrione at 100 g ai/ha",[2]; [4],85
same,"Actual control, Plus Mesotrione at 100 g ai/ha",[2]; [4],90
"O=C(O)COc1nc(Cl)c(Cl)cc1Cl [Triclopyr, [(3,5,6-trichloro-2-pyridyl)oxy]acetic acid]","Expected control (Colby), Plus Mesotrione at 100 g ai/ha","[1]; triclopyr 140 g ai/ha + mesotrione 100 g ai/ha, Colby formula",84
same,"Actual control, Plus Mesotrione at 100 g ai/ha","[1]; triclopyr 140 g ai/ha + mesotrione 100 g ai/ha, post-emergence",99
same,"Expected control (Colby), Plus Mesotrione at 200 g ai/ha","[1]; triclopyr 140 g ai/ha + mesotrione 200 g ai/ha, Colby formula",90
same,"Actual control, Plus Mesotrione at 200 g ai/ha","[1]; triclopyr 140 g ai/ha + mesotrione 200 g ai/ha, post-emergence",98
same,"Expected control (Colby), Plus Mesotrione at 200 g ai/ha",[3]; [5],32
same,"Actual control, Plus Mesotrione at 200 g ai/ha",[3]; [5],42
same,"Expected control (Colby), Plus Mesotrione at 200 g ai/ha",[3]; [6],35
same,"Actual control, Plus Mesotrione at 200 g ai/ha",[3]; [6],50
same,"Expected control (Colby), Plus Mesotrione at 100 g ai/ha",[2]; [7],91
same,"Actual control, Plus Mesotrione at 100 g ai/ha",[2]; [7],97
"CS(=O)(=O)c1ccc(C(=O)C2C(=O)CCCC2=O)c([N+](=O)[O-])c1 [mesotrione, 2-(2′-nitro-4′-methylsulphonylbenzoyl)-1,3-cyclohexanedione]",control of white clover on its own,"[1]; mesotrione alone, higher rate (100 g ai/ha), post-emergence",48%
same,control of white clover on its own,"[1]; mesotrione alone, lower rate (50 g ai/ha), post-emergence",32%
